Assay results from ChEMBL document CHEMBL1201862, “PubChem BioAssay data set” (2004).
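Compound exposure: 48 hours, 5 concentrations, 96-well plates. The concentration for 50% growth inhibition is given as GI50.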 Activity calls are given as the source filed them. No stated cut-off is given here; in the data, active = GI50 up to about 1.1 µM and inactive = higher.

Tests used:
Assay in all cases: NCI tumour cell line growth inhibition, 48 h
A549 = system: A549
CAKI-1 = system: CAKI-1
DU-145 = system: DU-145
HCT-15 = system: HCT-15
K562 = system: K562
MDA-N = system: MDA-N
NCI-H226 = system: NCI-H226
NCI-H522 = system: NCI-H522
NCI/ADR-RES = system: NCI/ADR-RES
OVCAR-4 = system: OVCAR-4
OVCAR-8 = system: OVCAR-8
PC-3 = system: PC-3
RXF 393 = system: RXF 393
SF-268 = system: SF-268
SW-620 = system: SW-620
TK-10 = system: TK-10
UACC-257 = system: UACC-257
UACC-62 = system: UACC-62
SK-OV-3 = system: SK-OV-3

Compound | GI50 (A549) | GI50 (CAKI-1) | GI50 (DU-145) | GI50 (HCT-15) [µM] | GI50 (K562) | GI50 (MDA-N) | GI50 (NCI-H226) | GI50 (NCI-H522) | GI50 (NCI/ADR-RES) | GI50 (OVCAR-4) | GI50 (OVCAR-8) | GI50 (PC-3) | GI50 (RXF 393) | GI50 (SF-268) | GI50 (SW-620) | GI50 (TK-10) | GI50 (UACC-257) | GI50 (UACC-62) | GI50 (SK-OV-3)
O=[As](O)(O)c1ccc2nc3cc([As](=O)(O)O)ccc3nc2c1 | > 100 µM (inactive) | > 100 µM (inactive) | > 100 µM (inactive) | > 100 | > 100 µM (inactive) | > 100 µM (inactive) | > 100 µM (inactive) | > 100 µM (inactive) | > 100 µM (inactive) | > 100 µM (inactive) | > 100 µM (inactive) | > 100 µM (inactive) | > 100 µM (inactive) | > 100 µM (inactive) | > 100 µM (inactive) | > 100 µM (inactive) | > 100 µM (inactive) | > 100 µM (inactive) | 
NC(=O)C1Cc2cc3c(cc21)OCO3 (stereo not given) | > 100 µM (inactive) | > 100 µM (inactive) | > 100 µM (inactive) | > 100 |  | > 100 µM (inactive) | > 100 µM (inactive) | > 100 µM (inactive) | > 100 µM (inactive) |  | > 100 µM (inactive) | > 100 µM (inactive) | > 100 µM (inactive) | > 100 µM (inactive) |  | > 100 µM (inactive) | > 100 µM (inactive) | > 100 µM (inactive) | > 100 µM (inactive)
N#Cc1c(-c2ccccc2)[nH]c2ccccc2c1=O | 9.59 µM (inactive) | > 100 µM (inactive) | > 100 µM (inactive) | 62.8 | 59.4 µM (inactive) | 33.4 µM (inactive) | 41.6 µM (inactive) |  | > 100 µM (inactive) | > 100 µM (inactive) | 97.9 µM (inactive) | > 100 µM (inactive) | 30.7 µM (inactive) | 35 µM (inactive) | 91 µM (inactive) | 32.8 µM (inactive) | > 100 µM (inactive) | 73.8 µM (inactive) | 26.2 µM (inactive)
CC1=NNC(=O)C1C(CC(=O)c1c[nH]c2ccccc12)C(=O)O (stereo not given) | > 100 µM (inactive) | > 100 µM (inactive) | > 100 µM (inactive) | 92.9 | 36.1 µM (inactive) | > 100 µM (inactive) | > 100 µM (inactive) | 72.1 µM (inactive) | > 100 µM (inactive) |  | > 100 µM (inactive) | > 100 µM (inactive) | > 100 µM (inactive) | > 100 µM (inactive) | > 100 µM (inactive) | > 100 µM (inactive) | > 100 µM (inactive) | > 100 µM (inactive) | > 100 µM (inactive)
Nc1ncnc2c1ncc(=O)n2C1CC(O)C(CO)O1 (stereo not given) | > 100 µM (inactive) | > 100 µM (inactive) | > 100 µM (inactive) | > 100 | > 100 µM (inactive) | > 100 µM (inactive) | > 100 µM (inactive) | > 100 µM (inactive) | > 100 µM (inactive) | > 100 µM (inactive) | > 100 µM (inactive) | > 100 µM (inactive) |  | > 100 µM (inactive) | > 100 µM (inactive) | > 100 µM (inactive) | > 100 µM (inactive) | > 100 µM (inactive) | > 100 µM (inactive)
NC(=O)CNC(=O)[C@@H]1C[C@@H](OCCC(=O)O)CN1C(=O)OCc1ccccc1 | > 100 µM (inactive) |  | > 100 µM (inactive) | > 100 | > 100 µM (inactive) | > 100 µM (inactive) | > 100 µM (inactive) | > 100 µM (inactive) | > 100 µM (inactive) | > 100 µM (inactive) | > 10 µM (inactive) | > 100 µM (inactive) | > 100 µM (inactive) | > 100 µM (inactive) | > 100 µM (inactive) | > 100 µM (inactive) | > 100 µM (inactive) | > 100 µM (inactive) | > 100 µM (inactive)
NC(N)=NCc1ccc2c(c1)OCO2 | > 100 µM (inactive) | 44.9 µM (inactive) | > 100 µM (inactive) | > 100 | > 100 µM (inactive) | > 100 µM (inactive) |  | > 100 µM (inactive) | > 100 µM (inactive) | > 100 µM (inactive) |  | > 100 µM (inactive) | 55.3 µM (inactive) | > 100 µM (inactive) | > 100 µM (inactive) | > 100 µM (inactive) |  | > 100 µM (inactive) | > 100 µM (inactive)
CNc1cc(OCc2ccccc2)c(OC)cc1C(=O)N1CCC[C@H]1CO | > 100 µM (inactive) | > 100 µM (inactive) | > 100 µM (inactive) | > 100 |  | > 100 µM (inactive) | > 100 µM (inactive) | 73.8 µM (inactive) | > 100 µM (inactive) | 70.1 µM (inactive) | > 100 µM (inactive) | > 100 µM (inactive) | > 100 µM (inactive) | > 100 µM (inactive) | > 100 µM (inactive) | > 100 µM (inactive) | > 100 µM (inactive) | > 100 µM (inactive) | > 100 µM (inactive)
CCOC(=O)c1nc2cc(C(F)(F)F)ccc2nc1Nc1ccc(OC)c(OC)c1 | > 100 µM (inactive) | > 100 µM (inactive) | > 100 µM (inactive) | > 100 | > 100 µM (inactive) | > 100 µM (inactive) |  | > 100 µM (inactive) | > 100 µM (inactive) |  | > 100 µM (inactive) | > 100 µM (inactive) | > 100 µM (inactive) | > 100 µM (inactive) | > 100 µM (inactive) | > 100 µM (inactive) | > 100 µM (inactive) | > 100 µM (inactive) | > 100 µM (inactive)
CCOC(=O)c1cc2cc([N+](=O)[O-])ccc2oc1=O | > 100 µM (inactive) | > 100 µM (inactive) | > 100 µM (inactive) | > 100 | 41.2 µM (inactive) | > 100 µM (inactive) | > 100 µM (inactive) | > 100 µM (inactive) | > 100 µM (inactive) | > 100 µM (inactive) | > 100 µM (inactive) | > 100 µM (inactive) | > 100 µM (inactive) | 39.3 µM (inactive) | > 100 µM (inactive) |  | > 100 µM (inactive) | 24.3 µM (inactive) | 
C=C1C(=O)OC2CC(=C)C3CC=C(C)C3CC12 (stereo not given) | 35.5 µM (inactive) | 15 µM (inactive) | > 10 µM (inactive) | 17.5 | 11 µM (inactive) | 16.4 µM (inactive) | 15.6 µM (inactive) | 14.4 µM (inactive) | 35.5 µM (inactive) | 27.3 µM (inactive) | 35.9 µM (inactive) | 14.9 µM (inactive) |  | 34 µM (inactive) | 15.7 µM (inactive) | 18 µM (inactive) | 14.4 µM (inactive) | 10.4 µM (inactive) | 30.7 µM (inactive)
C/C=C(/C)C(=O)O[C@H]1CCN2CC=C(COC(=O)[C@@](O)([C@H](C)OC)C(C)(C)O)[C@H]12 | > 100 µM (inactive) | > 100 µM (inactive) | > 100 µM (inactive) | > 100 | > 100 µM (inactive) | > 100 µM (inactive) | > 100 µM (inactive) | > 100 µM (inactive) | > 100 µM (inactive) | > 100 µM (inactive) | > 100 µM (inactive) | > 100 µM (inactive) |  | > 100 µM (inactive) | > 100 µM (inactive) | > 100 µM (inactive) | > 100 µM (inactive) | > 100 µM (inactive) | > 100 µM (inactive)
CO/C(=N\N=C\c1ccc(C(F)(F)F)cc1)c1ccncc1 | > 10 µM (inactive) | > 10 µM (inactive) | > 10 µM (inactive) | > 10 | > 10 µM (inactive) | > 10 µM (inactive) | > 10 µM (inactive) | > 10 µM (inactive) | > 10 µM (inactive) | > 10 µM (inactive) | > 10 µM (inactive) | > 10 µM (inactive) | > 10 µM (inactive) | > 10 µM (inactive) | > 10 µM (inactive) | > 10 µM (inactive) | > 10 µM (inactive) |  | 
O=C1/C(=C/c2ccc(Cl)cc2)N=C(c2ccccc2)N1c1nc2c(Cl)cc(Cl)cc2s1 | 24.5 µM (inactive) | 36.5 µM (inactive) | 33.7 µM (inactive) | 32.4 | 25.1 µM (inactive) | 17.5 µM (inactive) |  |  | 27.2 µM (inactive) | 30.9 µM (inactive) | 31.9 µM (inactive) | 18.5 µM (inactive) | 29.9 µM (inactive) | 43.9 µM (inactive) | 30.7 µM (inactive) | 42.1 µM (inactive) | 41.7 µM (inactive) | 28.4 µM (inactive) | 28.1 µM (inactive)
COc1ccc(NCn2nc(CCCCCCCCc3nn(CNc4ccc(OC)cc4)c(=S)o3)oc2=S)cc1 | > 100 µM (inactive) | > 100 µM (inactive) | > 100 µM (inactive) | > 100 | > 100 µM (inactive) | > 100 µM (inactive) | > 100 µM (inactive) | > 100 µM (inactive) | > 100 µM (inactive) | > 100 µM (inactive) |  | > 100 µM (inactive) | > 100 µM (inactive) | > 100 µM (inactive) | > 100 µM (inactive) | > 100 µM (inactive) | > 100 µM (inactive) | > 100 µM (inactive) | > 100 µM (inactive)
O/N=C\c1c2c(cc3c1CCC3)CCC2 | > 100 µM (inactive) | > 100 µM (inactive) | > 100 µM (inactive) | > 100 | > 100 µM (inactive) | > 100 µM (inactive) | > 100 µM (inactive) | > 100 µM (inactive) | > 100 µM (inactive) | > 100 µM (inactive) | > 100 µM (inactive) | > 100 µM (inactive) |  | > 100 µM (inactive) | > 100 µM (inactive) | > 100 µM (inactive) | > 100 µM (inactive) | > 100 µM (inactive) | > 100 µM (inactive)
